Source: ChEMBL document CHEMBL3430912, “GSK Tres Cantos Anti-Kinetoplastid Screening (TCAKS) Data”

Assays:
[1] = system: Leishmania donovani; assay: GSK_TCAKS: pIC50 Leishmania donovani viability assay using fluorescence intensity. Assay plates (1536-well) were prepared by adding 30nL per well of compound. For single shot assay, the final compound concentration was 5uM. […] Briefly, eGFP LdBOB axenic amastigotes were harvested, fixed and counted in a CASY cell counter (Roche-Applied Science). A final concentration of 1.5 * 10^5 cells per well were prepared in amastigote media containing 500 U/mL penicillin/streptomycin (Invitrogen) and 6uL was dispensed to each experimental well using a Multidrop Combi dispenser (Thermo Scientific). 6uL of assay media was dispensed to control columns used as reference for 100% compound response. Following incubation for 72 h at 37C, 5% CO2, 2 uL of resazurin was added to each well at a final concentration of 0.5 mM in phosphate buffered saline (PBS) with IGEPAL (Sigma-Aldrich), 0.05% (v/v).; type: functional, organism-based
[2] = system: Trypanosoma brucei brucei; assay: GSK_TCAKS: pIC50 Trypanosoma brucei viability assay using luminiscence. Assay plates (1536-well) were prepared. T. brucei cultures were harvested and counted in a CASY cell counter. A parasite suspension was prepared at a final concentration of 5 * 10^4 cells/mL in complete HMI9 medium and 6uL was dispensed to all wells containing compounds using a Multidrop Combi dispenser. 6uL of HMI9 media with 0.4% DMSO were dispensed to control columns. Plates were incubated for 24 h at 37C, 5% CO2 then tempered for 10 min at room temperature. ATP content was quantified by adding 4 uL of CellTiter-Glo Reagent (Promega) according to the manufacturer's instructions. Luminescence was measured using a ViewLux.; type: functional, organism-based; settings: Lister 427, CASY
[3] = molecular target: Sterol 14-alpha demethylase (Trypanosoma cruzi (strain CL Brener), UniProt Q7Z1V1); assay: GSK_TCAKS: pIC50 CYP51 from Trypanosoma cruzi.; type: functional
[4] = system: Leishmania donovani; assay: (§1) GSK_TCAKS: pIC50 Leishmania donovani Imaging: THP-1 Host Macrophages. Assay plates (384-well) were prepared by adding 250nL of compound to each well. For single shot assay, the final compound concentration was 5 uM. […] Automated image analysis was performed with a script developed on Acapella High Content Imaging and Analysis Software (PerkinElmer). Output: THP-1 cell count were reported for each well.; type: functional, organism-based, Homo sapiens
[5] = system: Trypanosoma brucei brucei; assay: GSK_TCAKS: pIC50 Trypanosoma brucei viability assay using fluorescence intensity. Assay plates (1536-well) were prepared by dispensing 25nL of compound solution per well using an Echo acoustic dispenser (Labcyte).; type: functional, organism-based; settings: Lister 427, 2 h
[6] = system: Trypanosoma cruzi; assay: (§2) GSK_TCAKS: pIC50 H2C9 Imaging: H9c2 Host Cardiomyocytes. […] Cells were then washed once with PBS before infection. T. cruzi trypomastigotes, collected at days 5 to 8 after infection from LLC-MK2 parasite infected cultures, were allowed to swim out for 4h at 37C from a centrifuged pellet (2,500 rpm/10 min/room temperature). Trypomastigotes were then collected and counted in a CASY Cell Counter. Trypomastigotes, in supplemented DMEM, were added to H9c2 cultures in a multiplicity of infection of 1 and incubated for 18 h. Cells were washed once with PBS before incubation of the infected H9c2 monolayer with trypsin (Life-Technologies) to detach cells from the flask. Cells were counted in a CASY Cell Counter using a 150 um capillary and their density set at 5 * 10^4 cells per mL in supplemented assay DMEM. Infected H9c2 were dispensed into 384-well poly-lysine coated assay plates at 50uL per well using a Multidrop Combi dispenser. After seeding them, the plates were incubated at 37C, 5% CO2 for 72h. Cultures were then fixed and stained by addition of 50 uL of a solution containing 8% formaldehyde and 4 uM DRAQ5 DNA dye (BioStatus, UK) per well. […] Five images were collected per well for reliable statistical analysis. Automated image analysis was performed with a script developed on Acapella High Content Imaging and Analysis Software (PerkinElmer). Output: Number of H9c2 Host Cardiomyocytes nuclei to determine drug-related cytotoxicity.; type: functional, organism-based, Rattus norvegicus; settings: H9c2, 4 h
[7] = GSK_TCAKS: pIC50 HepG2 human cell line viability assay using luminiscence. […] Seeding density was checked to ensure that new mono-layers were not more than 50% confluent at the time of harvesting. Cell suspension was added to 500 mL of the same medium at a final density of 1.2 * 10^5 cells/mL. This cell suspension was dispensed (25 uL, 3000 cells per well) into 384-well clear-bottom plates using a Multidrop Combi dispenser. Prior to addition of the cell suspension, the screening compounds (250 nL) were pre-dispensed into the plates with an Echo liquid handler. Plates were incubated for 48 h at 37C, 5% CO2. After incubation, plates equilibrated at room temperature for 30 min before proceeding to develop the luminescent signal. The signal developer, CellTiter-Glo Reagent, was allowed to equilibrate at room temperature for 30 min and added to the plates (25uL per well) using a Multidrop Combi dispenser. Plates were left for 10 min at room temperature for stabilization and then read using a ViewLux.; type: toxicity, cell-based
[8] = system: Leishmania donovani; assay: as §1, with “Infected” for “THP-1 Host”, “Percent of infected macrophage cells” for “THP-1 cell count”; type: functional, organism-based, Homo sapiens; settings: THP-1
[9] = system: Trypanosoma cruzi; assay: as §2, with “Trypanosoma cruzi” for “H2C9”, “Amastigotes/Cell.” for “H9c2 Host Cardiomyocytes.”, “number” for “Number”, “amastigotes per cell as infection level measurement.” for “H9c2 Host Cardiomyocytes nuclei to determine drug-related cytotoxicity.”; type: functional, organism-based, Rattus norvegicus; settings: H9c2, 4 h
[10] = system: Trypanosoma cruzi; assay: as §2, with “Trypanosoma cruzi” for “H2C9”, “Infected Cells.” for “H9c2 Host Cardiomyocytes.”, “percentage” for “Number”, “infected cells per well as a second infection marker.” for “H9c2 Host Cardiomyocytes nuclei to determine drug-related cytotoxicity.”; type: functional, organism-based, Rattus norvegicus; settings: H9c2, 4 h
[11] = system: Trypanosoma cruzi; assay: GSK_TCAKS: pIC50 Trypanosoma cruzi viability assay using beta-GAL activity. This assay was run at single shot at 5uM compound concentration per well. The biological reagents consisted of NIH-3T3 host cells and trypomastigotes parasitic cells; both cell types were set to a 3.3 * 10^5 cells/mL dilution in assay DMEM by means of a CASY cell counter device using a 60um capillary. 6 uL of the mixture were dispensed per well (about 1 * 10^3 host-cells and 1 * 10^3 parasites) with a Multidrop Combi dispenser. […] In all wells, the percentage of DMSO never exceeded 0.5%. Plates incubated for four days at 37C, 5% CO2. The substrate used for the assay fluorescence intensity (FLINT) readout was resorufin-beta-D-galactopiranoside (Sigma-Aldrich) at 5uM per well. It was diluted in PBS supplemented with the soft detergent Igepal (Fluka).; type: functional, organism-based, Mus musculus; settings: Tulahuen, NIH3T3
[12] = system: Leishmania donovani; assay: as §1, with “Amastigotes/Macrophages.” for “THP-1 Host Macrophages.”, “Average number of amastigotes per macrophage” for “THP-1”, “cell” for “cell count”; type: functional, organism-based, Homo sapiens; settings: THP-1

Chain of Sterol 14-alpha demethylase (Q7Z1V1 whole entry): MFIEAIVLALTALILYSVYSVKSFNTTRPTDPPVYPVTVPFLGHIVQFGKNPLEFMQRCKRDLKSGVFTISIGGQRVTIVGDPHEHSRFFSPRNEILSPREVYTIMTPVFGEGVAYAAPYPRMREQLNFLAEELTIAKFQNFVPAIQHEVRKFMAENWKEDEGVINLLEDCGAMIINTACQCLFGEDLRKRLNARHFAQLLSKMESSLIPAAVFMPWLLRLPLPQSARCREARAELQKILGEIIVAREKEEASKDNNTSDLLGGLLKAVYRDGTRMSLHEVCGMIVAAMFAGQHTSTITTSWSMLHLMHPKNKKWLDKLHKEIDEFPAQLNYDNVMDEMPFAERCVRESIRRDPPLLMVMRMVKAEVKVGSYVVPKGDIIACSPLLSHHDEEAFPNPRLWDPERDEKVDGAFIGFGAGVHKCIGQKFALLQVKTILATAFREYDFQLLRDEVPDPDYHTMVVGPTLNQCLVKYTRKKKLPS

| Structure (SMILES) | IC50 [1] [µM] | IC50 [2] [µM] | IC50 [3] [µM] | IC50 [4] [µM] | IC50 [5] [µM] | IC50 [6] [µM] | IC50 at 48 h [7] [µM] | IC50 [8] [µM] | IC50 [9] [µM] | IC50 [10] [µM] | IC50 [11] [µM] | IC50 [12] [µM] |
| --- | --- | --- | --- | --- | --- | --- | --- | --- | --- | --- | --- | --- |
| Cc1ccnc(NS(=O)(=O)c2ccc(NC(=O)c3ccc([N+](=O)[O-])s3)cc2)n1 | 3.98 | 0.398 | 63.1 | 10 | 0.2 | 5.01 | 15.8 | 10 | 6.31 | 10 | 2 | 5.01 |
| O=C(NCCc1csc(-c2ccc(F)cc2)n1)c1ccco1 | > 50.1 | 0.501 | > 100 | > 50.1 | 0.398 | > 50.1 | > 100 | > 50.1 | 1.26 | 1.58 | 2.24 | > 50.1 |
| CCOc1ccc(N(C)S(=O)(=O)c2ccc3[nH]cc(C(=O)NC4CCCC4)c(=O)c3c2)cc1 | > 50.1 | 0.501 | 6.31 | 25.1 | 0.251 | > 50.1 | 50.1 | 31.6 | 6.31 | > 50.1 | 7.94 | 31.6 |
| CCC(=O)N1N=C(c2ccc3c(c2)CCCC3)Sc2c1ncn2C(=O)CC | 25.1 | 20 | > 100 | > 50.1 | 15.8 | > 50.1 | > 100 | 3.16 | 12.6 | 20 | 6.31 | 2.51 |
| Cc1cc(NC(=O)C2CC2)ccc1OC1CCN(Cc2ccco2)CC1 | > 50.1 | 0.251 | 63.1 | 12.6 | 0.126 | 39.8 | 50.1 | 20 | 20 | 39.8 | 15.8 | 12.6 |
| c1ccc(Nc2nc(-c3ccccn3)cc(N3CCOCC3)n2)cc1 | 6.31 | 12.6 | > 100 | > 50.1 | 15.8 | 0.631 | > 100 | 2 | 25.1 | > 50.1 | 2 | 1.26 |
| CCNc1cc(-c2ccccn2)nc(Nc2ccccc2)n1 | 2.51 | 12.6 | > 100 | 20 | 25.1 | 0.251 | 25.1 | 0.794 | 3.16 | 3.16 | 0.794 | 0.631 |
| CCNc1cc(-c2ccccn2)nc(Nc2ccc(OC)cc2)n1 | 1.58 | 10 | 39.8 | 25.1 | 12.6 | 0.316 | 39.8 | 0.501 | 2.51 | 3.16 | 0.708 | 0.398 |
| OCC1CCCCN1c1cc(-c2ccccn2)nc(Nc2ccccc2)n1 (stereo unspecified) | 3.16 | 6.31 | 79.4 | 20 | 5.01 | 0.501 | 31.6 | 1.26 | 2 | 3.98 | 0.794 | 1 |
| Cc1ccc(Nc2nc(-c3ccccn3)cc(N3CCCC(O)C3)n2)cc1 (stereo unspecified) | 2 | 3.16 | 25.1 | 25.1 | 3.16 | 0.501 | 39.8 | 0.794 | 2.51 | 6.31 | 0.501 | 0.501 |
| COc1ccc(Nc2nc(-c3ccccn3)cc(N3CCCC(O)C3)n2)cc1 (stereo unspecified) | 2.51 | 12.6 | 50.1 | 25.1 | 3.98 | 3.98 | 39.8 | 1 | 7.94 | 5.01 | 0.631 | 0.794 |
| Cc1nn(-c2nc(N)nc(-c3ccccn3)n2)c(N)c1-c1ccccc1 | 5.01 | 6.31 | > 100 | 20 | 2 | 12.6 | 63.1 | 3.16 | 1.26 | 5.01 | 3.98 | 2 |
| Nc1nc(-c2ccccn2)nc(-n2nc(-c3ccccc3)cc2N)n1 | 2 | 3.16 | > 100 | 10 | 1 | 2 | 10 | 0.794 | 0.316 | 2.51 | 0.501 | 0.794 |
| CC(C)(C)C(=O)NCCc1csc(-c2ccc(F)cc2)n1 | > 50.1 | 0.794 | 79.4 | > 50.1 | 0.631 | > 50.1 | > 100 | > 50.1 | 2.51 | 3.16 | 3.55 | > 50.1 |
| COCc1cnc2c(c1SCc1c(F)cccc1Cl)c(=O)n(C)c(=O)n2C | 3.98 | > 39.8 | 25.1 | > 50.1 | 3.98 | > 50.1 | > 100 | 5.01 | 2.51 | 3.98 | > 50.1 | 5.01 |
| CNC(=O)C1Cc2ccccc2N1C(=O)COc1cccc(OC)c1 (stereo unspecified) | > 50.1 | 1 | 100 | > 50.1 | 0.631 | > 50.1 | > 100 | > 50.1 | > 50.1 | > 50.1 | > 50.1 | > 50.1 |
| CCOc1ccc(OCC(=O)N2c3ccccc3CC2C(=O)NC)cc1 (stereo unspecified) | > 50.1 | 0.794 | > 100 | > 50.1 | 0.501 | > 50.1 | > 100 | > 50.1 | > 50.1 | > 50.1 | > 50.1 | > 50.1 |
| CNC(=O)C1Cc2ccccc2N1C(=O)Cc1ccccc1 (stereo unspecified) | > 50.1 | 1 | > 100 | > 50.1 | 0.631 | > 50.1 | > 100 | > 50.1 | > 50.1 | > 50.1 | > 50.1 | > 50.1 |
